In the supplement of paper PMC5908809:

Columns and labels:
[1] = tested on: normal NK cells expanded with K562-aAPC; assay: percent inhibition of viability; higher = more inhibition; conditions: 72 h, IL-2 2.5 ng/mL
Description: (§1)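 Drug sensitivity and resistance testing on K562-aAPC-expanded normal NK cells: 5 concentrations (10-fold steps over a 10,000-fold range), 72 h at 37 °C, viability by CellTiter-Glo normalised to DMSO and benzethonium chloride controls; DSS from the fitted curve.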

DERL-7 (IL-2 2.5 ng/mL) [2] = assay: as above; conditions: 72 h
IMC-1 (IL-2 20 ng/mL) [3] = assay: as above; conditions: 72 h
KAI3 (IL-2 2.5 ng/mL) [4] = assay: as above; conditions: 72 h
KHYG-1 (IL-2 2.5 ng/mL) [5] = assay: as above; conditions: 72 h
NK-92 (IL-2 2.5 ng/mL) [6] = assay: as above; conditions: 72 h
NK-YS (IL-2 2.5 ng/mL) [7] = assay: as above; conditions: 72 h
NKL (IL-2 2.5 ng/mL) [8] = assay: as above; conditions: 72 h
SNK-6 (IL-2 2.5 ng/mL) [9] = assay: as above; conditions: 72 h
YT (IL-2 2.5 ng/mL) [10] = assay: as above; conditions: 72 h
[11] = tested on: normal primary NK cells, pool 1 (3 donors) (IL-2 2.5 ng/mL); assay: as above; conditions: 72 h
[12] = tested on: normal primary NK cells, pool 1 (3 donors), resting (IL-2 0 ng/mL); assay: as above; conditions: 72 h
[13] = tested on: normal primary NK cells, pool 2 (3 donors) (IL-2 2.5 ng/mL); assay: as above; conditions: 72 h
[14] = tested on: normal primary NK cells, pool 3 (3 donors) (IL-2 2.5 ng/mL); assay: as above; conditions: 72 h
[15] = tested on: normal NK cells expanded with K562-aAPC; assay: drug sensitivity score (DSS) (DSS units); higher = more sensitive; extreme values may be limits of the assay; conditions: 72 h; IL-2 2.5 ng/mL
Description: as §1

DERL-7 (IL-2 2.5 ng/mL) [16] = assay: as above; conditions: 72 h
IMC-1 (IL-2 20 ng/mL) [17] = assay: as above; conditions: 72 h
KAI3 (IL-2 2.5 ng/mL) [18] = assay: as above; conditions: 72 h
KHYG-1 (IL-2 2.5 ng/mL) [19] = assay: as above; conditions: 72 h
NK-92 (IL-2 2.5 ng/mL) [20] = assay: as above; conditions: 72 h
NK-YS (IL-2 2.5 ng/mL) [21] = assay: as above; conditions: 72 h
NKL (IL-2 2.5 ng/mL) [22] = assay: as above; conditions: 72 h
SNK-6 (IL-2 2.5 ng/mL) [23] = assay: as above; conditions: 72 h
YT (IL-2 2.5 ng/mL) [24] = assay: as above; conditions: 72 h
[25] = tested on: normal primary NK cells, pool 1 (3 donors) (IL-2 2.5 ng/mL); assay: as above; conditions: 72 h
[26] = tested on: normal primary NK cells, pool 1 (3 donors), resting (IL-2 0 ng/mL); assay: as above; conditions: 72 h
[27] = tested on: normal primary NK cells, pool 2 (3 donors) (IL-2 2.5 ng/mL); assay: as above; conditions: 72 h
[28] = tested on: normal primary NK cells, pool 3 (3 donors) (IL-2 2.5 ng/mL); assay: as above; conditions: 72 h

O=C(CCCCCCC(=O)Nc1ccc([C@H]2O[C@@H](CSc3nc(-c4ccccc4)c(-c4ccccc4)o3)C[C@@H](c3ccc(CO)cc3)O2)cc1)NO [Tubacin] (max concentration tested 10000 nM)
percent inhibition of viability [%]
Conditions	1 nM	10 nM	100 nM	1000 nM	10000 nM
DERL-7 (IL-2 2.5 ng/mL) [2]	-2.36	4.2	7.74	19.8	86.6
IMC-1 (IL-2 20 ng/mL) [3]	-1.32	0.91	3.12	6.34	99
KAI3 (IL-2 2.5 ng/mL) [4]	-2.25	-0.51	-0.15	12	87.7
KHYG-1 (IL-2 2.5 ng/mL) [5]	-2.84	-3.16	1.24	0.88	84.9
NK-92 (IL-2 2.5 ng/mL) [6]	-7.58	4.48	12.8	18.2	74.3
NK-YS (IL-2 2.5 ng/mL) [7]	-6.18	-3.18	-0.57	4.16	93.2
NKL (IL-2 2.5 ng/mL) [8]	-14.5	-0.93	-1.27	28.3	86.2
SNK-6 (IL-2 2.5 ng/mL) [9]	-5.06	2.23	22.3	16.9	89.8
YT (IL-2 2.5 ng/mL) [10]	0.56	0.68	3.58	5.84	88.3
[1]	-0.3	4.86	3.67	7.82	40.4
[11]	2.38	1.13	3.02	-4.6	47.5
[12]	-6.72	-11.8	5.02	-11.8	77.7
[13]	-4.13	-4.61	0.44	0.6	24
[14]	-6.56	-3.63	5.33	-0.47	15.8

Conditions	drug sensitivity score
DERL-7 (IL-2 2.5 ng/mL) [16]	7.93
IMC-1 (IL-2 20 ng/mL) [17]	6.44
KAI3 (IL-2 2.5 ng/mL) [18]	6.87
KHYG-1 (IL-2 2.5 ng/mL) [19]	4.84
NK-92 (IL-2 2.5 ng/mL) [20]	6.62
NK-YS (IL-2 2.5 ng/mL) [21]	5.76
NKL (IL-2 2.5 ng/mL) [22]	8.82
SNK-6 (IL-2 2.5 ng/mL) [23]	7.71
YT (IL-2 2.5 ng/mL) [24]	5.78
[15]	3.3
[25]	2.14
[26]	3.59
[27]	0.95
[28]	0.27
